Measured values published in the NIST ThermoML archive (doi:10.1021/je030147g).

What was measured:
[1] = xn = mol fraction of the nth substance listed; details: 101.33 kPa, Liquid
[2] = refractive index (Na D-line) (dimensionless); xn = mol fraction of the nth substance listed; details: 101.33 kPa, Liquid

CCCCN(CCCC)CCCC [tributylamine] + c1ccncc1
Details | mass density, 298.15 K [kg/m3] | mass density, 303.15 K [kg/m3] | mass density, 308.15 K [kg/m3] | refractive index, 298.15 K | refractive index, 303.15 K | refractive index, 308.15 K | speed of sound, 298.15 K [m/s] | viscosity, 298.15 K [mPa·s] | viscosity, 303.15 K [mPa·s] | viscosity, 308.15 K [mPa·s]
[1], x1 = 0.0977 | 927.2 | 922.3 | 917.4 | – | – | – | 1363 | 0.895 | 0.833 | 0.771
[1], x1 = 0.1951 | 890.5 | 885.6 | 880.7 | – | – | – | 1333 | 0.914 | 0.849 | 0.783
[1], x1 = 0.2949 | 862.6 | 858 | 853.3 | – | – | – | 1308 | 0.941 | 0.872 | 0.804
[1], x1 = 0.3938 | 841.3 | 836.8 | 832.2 | – | – | – | 1290 | 0.971 | 0.898 | 0.825
[1], x1 = 0.4898 | 824.7 | 820.3 | 815.9 | – | – | – | 1282 | 1.002 | 0.925 | 0.848
[1], x1 = 0.5884 | 810.8 | 806.5 | 802.1 | – | – | – | 1278 | 1.038 | 0.957 | 0.876
[1], x1 = 0.6899 | 799 | 794.7 | 790.5 | – | – | – | 1275 | 1.077 | 0.993 | 0.909
[1], x1 = 0.7846 | 789.9 | 785.7 | 781.6 | – | – | – | 1271 | 1.122 | 1.031 | 0.94
[1], x1 = 0.8869 | 781.6 | 777.5 | 773.3 | – | – | – | 1266 | 1.175 | 1.077 | 0.979
[1], x1 = 1 | 773.9 | 769.2 | 765.7 | – | – | – | 1262 | 1.239 | 1.124 | 1.028
[2], x1 = 0.0977 | – | – | – | 1.4866 | 1.483 | 1.4795 | – | – | – | –
[2], x1 = 0.1951 | – | – | – | 1.4708 | 1.4685 | 1.4662 | – | – | – | –
[2], x1 = 0.2949 | – | – | – | 1.4606 | 1.4574 | 1.4542 | – | – | – | –
[2], x1 = 0.3938 | – | – | – | 1.4513 | 1.4491 | 1.447 | – | – | – | –
[2], x1 = 0.4898 | – | – | – | 1.4464 | 1.4428 | 1.4392 | – | – | – | –
[2], x1 = 0.5884 | – | – | – | 1.4403 | 1.4376 | 1.4348 | – | – | – | –
[2], x1 = 0.6899 | – | – | – | 1.4359 | 1.4335 | 1.4311 | – | – | – | –
[2], x1 = 0.7846 | – | – | – | 1.4333 | 1.43 | 1.4268 | – | – | – | –
[2], x1 = 0.8869 | – | – | – | 1.4303 | 1.4277 | 1.4252 | – | – | – | –
[2], x1 = 1 | – | – | – | 1.4276 | 1.4255 | 1.4228 | – | – | – | –

ClC(Cl)=C(Cl)Cl [tetrachloroethene] + CCCCN(CCCC)CCCC
x2 = 0
Details | mass density, 298.15 K [kg/m3] | mass density, 303.15 K [kg/m3] | mass density, 308.15 K [kg/m3] | refractive index, 298.15 K | refractive index, 303.15 K | refractive index, 308.15 K | speed of sound, 298.15 K [m/s] | viscosity, 298.15 K [mPa·s] | viscosity, 303.15 K [mPa·s] | viscosity, 308.15 K [mPa·s]
[1] | 1616 | 1607.5 | 1597.5 | – | – | – | 1033 | 0.875 | 0.831 | 0.791
[2] | – | – | – | 1.5036 | 1.5005 | 1.4978 | – | – | – | –

CCN(CC)CC [triethylamine] + CCCCN(CCCC)CCCC
x2 = 0
Details | mass density, 298.15 K [kg/m3] | mass density, 303.15 K [kg/m3] | mass density, 308.15 K [kg/m3] | refractive index, 298.15 K | refractive index, 303.15 K | refractive index, 308.15 K | speed of sound, 298.15 K [m/s] | viscosity, 298.15 K [mPa·s] | viscosity, 303.15 K [mPa·s] | viscosity, 308.15 K [mPa·s]
[1] | 723.3 | 718.6 | 713.7 | – | – | – | 1123 | 0.367 | 0.349 | 0.332
[2] | – | – | – | 1.3992 | 1.3958 | 1.3929 | – | – | – | –

CCCCN(CCCC)CCCC [tributylamine] + CCN(CC)CC
Details | mass density, 298.15 K [kg/m3] | mass density, 303.15 K [kg/m3] | mass density, 308.15 K [kg/m3] | refractive index, 298.15 K | refractive index, 303.15 K | refractive index, 308.15 K | speed of sound, 298.15 K [m/s] | viscosity, 298.15 K [mPa·s] | viscosity, 303.15 K [mPa·s] | viscosity, 308.15 K [mPa·s]
[1], x1 = 0.1072 | 732 | 727.3 | 722.8 | – | – | – | 1143 | 0.433 | 0.411 | 0.388
[1], x1 = 0.2039 | 739.2 | 734.6 | 730.2 | – | – | – | 1160 | 0.491 | 0.464 | 0.438
[1], x1 = 0.3083 | 745.9 | 741.4 | 737.1 | – | – | – | 1179 | 0.567 | 0.533 | 0.499
[1], x1 = 0.4066 | 751.5 | 747.2 | 742.9 | – | – | – | 1196 | 0.643 | 0.602 | 0.561
[1], x1 = 0.5029 | 756.4 | 752.2 | 747.9 | – | – | – | 1210 | 0.719 | 0.672 | 0.625
[1], x1 = 0.5905 | 760.2 | 756 | 751.8 | – | – | – | 1221 | 0.801 | 0.746 | 0.688
[1], x1 = 0.6928 | 763.7 | 759.5 | 755.4 | – | – | – | 1232 | 0.899 | 0.833 | 0.767
[1], x1 = 0.7914 | 767.1 | 763 | 758.9 | – | – | – | 1236 | 1.003 | 0.923 | 0.844
[1], x1 = 0.8942 | 770.6 | 766.5 | 762.4 | – | – | – | 1246 | 1.118 | 1.026 | 0.934
[1], x1 = 1 | 773.9 | 769.2 | 765.7 | – | – | – | 1262 | 1.239 | 1.123 | 1.028
[2], x1 = 0.1072 | – | – | – | 1.4052 | 1.4031 | 1.4012 | – | – | – | –
[2], x1 = 0.2039 | – | – | – | 1.4104 | 1.4079 | 1.4054 | – | – | – | –
[2], x1 = 0.3083 | – | – | – | 1.4131 | 1.4116 | 1.4102 | – | – | – | –
[2], x1 = 0.4066 | – | – | – | 1.4164 | 1.4144 | 1.4122 | – | – | – | –
[2], x1 = 0.5029 | – | – | – | 1.4208 | 1.4178 | 1.4148 | – | – | – | –
[2], x1 = 0.5905 | – | – | – | 1.4218 | 1.4194 | 1.4169 | – | – | – | –
[2], x1 = 0.6928 | – | – | – | 1.4238 | 1.4213 | 1.4189 | – | – | – | –
[2], x1 = 0.7914 | – | – | – | 1.4256 | 1.423 | 1.4204 | – | – | – | –
[2], x1 = 0.8942 | – | – | – | 1.4265 | 1.4241 | 1.4217 | – | – | – | –
[2], x1 = 1 | – | – | – | 1.4276 | 1.4255 | 1.4228 | – | – | – | –

CCCCCCCCCCCCCC [tetradecane] + CCCCN(CCCC)CCCC
x2 = 0
Details | mass density, 298.15 K [kg/m3] | mass density, 303.15 K [kg/m3] | mass density, 308.15 K [kg/m3] | refractive index, 298.15 K | refractive index, 303.15 K | refractive index, 308.15 K | speed of sound, 298.15 K [m/s] | viscosity, 298.15 K [mPa·s] | viscosity, 303.15 K [mPa·s] | viscosity, 308.15 K [mPa·s]
[1] | 760.7 | 757 | 753.3 | – | – | – | 1315 | 2.032 | 1.827 | 1.653
[2] | – | – | – | 1.4282 | 1.426 | 1.4236 | – | – | – | –
